According to ChEMBL document CHEMBL1136496, “Synthesis and evaluation of optically pure dioxolanes as inhibitors of hepatitis C virus RNA replication” (Bioorg Med Chem Lett, 2003):
pEC50: −log10 of the molar value.

Tested on: Nucleic Acid
Assay: Concentration required to inhibit HCV RNA replication was determined
Type: functional, Hepacivirus hominis

**Q.** `C[C@H]1O[C@@H](CO)O[C@H]1n1ccc2c(N)ncnc21` was tested. Which pEC50 did it give?
**A.** Its pEC50 is under 4.30.

**Q.** `Nc1ncnc2c1ccn2[C@H]1CO[C@@H](CO)O1` was tested. Which pEC50 did it give?
**A.** The pEC50 was under 4.30.

**Q.** How did the pEC50 turn out when `C[C@H]1O[C@@H](CO)O[C@@H]1n1ccc2c(N)ncnc21` was run?
**A.** The pEC50 was under 4.30.

**Q.** With `C[C@H]1O[C@@H](CO)O[C@H]1n1ccc2c(O)nc(N)nc21` as the compound, how does the pEC50 read?
**A.** The pEC50 was under 4.30.

**Q.** `Nc1nc(O)c2ccn([C@H]3CO[C@@H](CO)O3)c2n1` was tested. Which pEC50 did it give?
**A.** The pEC50 was under 4.30.

**Q.** `Nc1ncnc2c1ccn2[C@@H]1CO[C@@H](CO)O1` was tested. Which pEC50 did it give?
**A.** Its pEC50 is under 4.30.
